Assay [1] concerns the target Cell division cycle 7-related protein kinase (Homo sapiens, UniProt O00311). Format: functional.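 Further: value obtained from a kinome-wide kinase panel.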
Assay [2] addresses Homeodomain-interacting protein kinase 2 (Homo sapiens, UniProt Q9H2X6). Format: functional.
Assay [3] addresses Rho-associated protein kinase 2 (Homo sapiens, UniProt O75116). Type of assay: functional.
Assay [4] concerns the target Dual specificity protein kinase CLK4 (Homo sapiens, UniProt Q9HAZ1). Format: functional.
Assay [5] concerns the target MAP kinase-interacting serine/threonine-protein kinase 2 (Homo sapiens, UniProt Q9HBH9). Format: functional.
Assay [6] addresses Protein kinase C zeta type (Homo sapiens, UniProt Q05513). Format: functional.
Assay [7] deals with Serine/threonine-protein kinase PLK1 (Homo sapiens, UniProt P53350). Format: functional.
For assay [8], the target named is Testis-specific serine/threonine-protein kinase 2 (Homo sapiens, UniProt Q96PF2). Format: functional.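 Further: part of the Navigating the Kinome panel, target entry STK22B.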
Assay [9] concerns the target Dual specificity mitogen-activated protein kinase kinase 1 (Homo sapiens, UniProt Q02750). The assay is described as follows: Navigating the Kinome. Panel member name: MAP2K1. Type of assay: functional.
Assay [10] addresses Rho-associated protein kinase 1 (Homo sapiens, UniProt Q13464). Format: functional.
The target in assay [11] is STE20-like serine/threonine-protein kinase (Homo sapiens, UniProt Q9H2G2). Type of assay: functional.
Assay [12] concerns the target Serine/threonine-protein kinase Chk2 (Homo sapiens, UniProt O96017). Format: functional.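 Further: CHEK2 entry within a kinome-wide screening panel.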
Assay [13] has as its target Insulin-like growth factor 1 receptor (Homo sapiens, UniProt P08069). Nature of the assay: Navigating the Kinome. Panel member name: IGF1R. Format: functional.
For assay [14], the target named is Calcium/calmodulin-dependent protein kinase type II subunit alpha (Homo sapiens, UniProt Q9UQM7). The assay is described as follows: Navigating the Kinome. Panel member name: CAMK2A. Format: functional.
Assay [15] concerns the target Tyrosine-protein kinase JAK2 (Homo sapiens, UniProt O60674). Type of assay: functional.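 Further: JAK2 tested as one member of a kinase panel.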
The target in assay [16] is Serine/threonine-protein kinase pim-3 (Homo sapiens, UniProt Q86V86). Type of assay: functional.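 Further: value obtained as one member of a broad kinase panel profiling effort.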
For assay [17], the target named is 5'-AMP-activated protein kinase catalytic subunit alpha-1 (Homo sapiens, UniProt Q13131). Type of assay: functional.
For assay [18], the target named is Leukocyte tyrosine kinase receptor (Homo sapiens, UniProt P29376). The assay is described as follows: Navigating the Kinome. Panel member name: LTK. Format: functional.
For assay [19], the target named is Lymphokine-activated killer T-cell-originated protein kinase (Homo sapiens, UniProt Q96KB5). Type of assay: functional.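 Further: value comes from a kinase panel screen in which TOPK was one of the panel members.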
Assay [20] addresses Serine/threonine-protein kinase D2 (Homo sapiens, UniProt Q9BZL6). Type of assay: functional.
For assay [21], the target named is Tyrosine-protein kinase ITK/TSK (Homo sapiens, UniProt Q08881). Type of assay: functional.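 Further: affinity for ITK measured as one member of a broad kinase panel profiling binding across the kinome.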
The target of assay [22] is Tyrosine-protein kinase Lyn (Homo sapiens, UniProt P07948). Type of assay: functional.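 Further: lyn as one member of a kinase panel.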
Another assay has as its target Activin receptor type-1 (Homo sapiens, UniProt Q04771). Nature of the assay: Navigating the Kinome. Panel member name: ACVR1. Format: functional.
The target of assay [23] is Tyrosine-protein kinase FRK (Homo sapiens, UniProt P42685). Type of assay: functional.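 Further: FRK tested as one member of a kinome panel.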
In assay [24] the target is Megakaryocyte-associated tyrosine-protein kinase (Homo sapiens, UniProt P42679). Type of assay: functional.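 Further: affinity measured as one member of a kinase panel (Navigating the Kinome) against MATK.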
The target of the next assay is T1, Caspase-3 (Homo sapiens, UniProt P42574).
T1 sequence (P42574 whole entry): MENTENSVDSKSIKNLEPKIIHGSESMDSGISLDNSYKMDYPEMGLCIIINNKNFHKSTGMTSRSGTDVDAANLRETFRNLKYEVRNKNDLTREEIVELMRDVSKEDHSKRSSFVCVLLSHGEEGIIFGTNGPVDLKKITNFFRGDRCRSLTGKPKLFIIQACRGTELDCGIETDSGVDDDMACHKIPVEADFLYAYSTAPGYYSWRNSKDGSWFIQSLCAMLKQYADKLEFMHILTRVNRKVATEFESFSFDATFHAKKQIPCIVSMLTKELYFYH
The assay is described as follows: SAR Analysis of small molecule inhibitors of Sentrin-specific proteases (SENPs) using a Caspase-3 Selectivity assay. [Related pubchem assays (depositor defined):AID2540, AID2599, AID434973, AID489001]. Type of assay: functional.

A further assay has as its target SUMO-activating enzyme (Homo sapiens, UniProt Q9UBT2). The assay is described as follows: blockers of SAE1/SAE2–UBC9 SUMO transfer – biochemical, HTRF, uHTS, primary screen (AID 2006). Format: protein-complex assay. (In general: In TR-FRET formats the signal depends on donor and acceptor labels being close together.)
The target of assay [25] is Photoreceptor-specific nuclear receptor (Homo sapiens, UniProt Q9Y5X4). Type of assay: functional.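 Further: potency for compounds that break the NR2E3 corepressor complex and count as activators.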

Active and inactive are the calls of the source.

Homeodomain-interacting protein kinase 2, sequence (Q9H2X6 whole entry): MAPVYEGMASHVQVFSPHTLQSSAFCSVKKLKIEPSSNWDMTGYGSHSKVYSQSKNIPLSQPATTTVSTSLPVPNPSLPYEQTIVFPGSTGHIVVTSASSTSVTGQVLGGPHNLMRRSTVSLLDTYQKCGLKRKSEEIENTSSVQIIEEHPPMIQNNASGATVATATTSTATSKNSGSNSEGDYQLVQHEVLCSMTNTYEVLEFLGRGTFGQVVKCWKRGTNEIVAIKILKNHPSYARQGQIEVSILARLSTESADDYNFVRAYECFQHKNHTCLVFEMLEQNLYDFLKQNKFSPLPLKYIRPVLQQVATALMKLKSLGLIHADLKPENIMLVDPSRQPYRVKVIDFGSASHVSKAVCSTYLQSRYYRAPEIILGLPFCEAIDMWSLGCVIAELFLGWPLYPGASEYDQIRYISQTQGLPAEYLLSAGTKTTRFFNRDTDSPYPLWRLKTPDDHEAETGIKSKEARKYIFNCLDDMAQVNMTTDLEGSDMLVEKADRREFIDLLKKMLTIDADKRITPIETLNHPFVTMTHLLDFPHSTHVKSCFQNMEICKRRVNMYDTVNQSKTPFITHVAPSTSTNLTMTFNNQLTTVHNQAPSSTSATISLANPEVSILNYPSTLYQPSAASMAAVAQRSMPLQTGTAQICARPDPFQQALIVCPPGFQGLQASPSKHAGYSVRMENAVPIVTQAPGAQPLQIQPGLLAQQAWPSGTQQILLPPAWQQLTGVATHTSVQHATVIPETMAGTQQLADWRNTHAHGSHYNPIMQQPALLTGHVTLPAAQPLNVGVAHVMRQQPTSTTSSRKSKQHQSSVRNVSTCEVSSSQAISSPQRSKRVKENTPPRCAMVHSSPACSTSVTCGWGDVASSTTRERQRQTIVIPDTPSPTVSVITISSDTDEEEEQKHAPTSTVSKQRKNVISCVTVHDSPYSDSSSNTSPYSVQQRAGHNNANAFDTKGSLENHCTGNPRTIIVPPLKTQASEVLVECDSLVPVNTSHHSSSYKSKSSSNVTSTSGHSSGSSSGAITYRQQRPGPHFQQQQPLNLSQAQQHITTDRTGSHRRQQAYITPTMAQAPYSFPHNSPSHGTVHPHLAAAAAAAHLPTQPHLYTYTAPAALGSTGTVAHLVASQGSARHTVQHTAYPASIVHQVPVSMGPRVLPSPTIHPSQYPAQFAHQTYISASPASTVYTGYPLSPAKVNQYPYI
Photoreceptor-specific nuclear receptor, sequence (Q9Y5X4 whole entry): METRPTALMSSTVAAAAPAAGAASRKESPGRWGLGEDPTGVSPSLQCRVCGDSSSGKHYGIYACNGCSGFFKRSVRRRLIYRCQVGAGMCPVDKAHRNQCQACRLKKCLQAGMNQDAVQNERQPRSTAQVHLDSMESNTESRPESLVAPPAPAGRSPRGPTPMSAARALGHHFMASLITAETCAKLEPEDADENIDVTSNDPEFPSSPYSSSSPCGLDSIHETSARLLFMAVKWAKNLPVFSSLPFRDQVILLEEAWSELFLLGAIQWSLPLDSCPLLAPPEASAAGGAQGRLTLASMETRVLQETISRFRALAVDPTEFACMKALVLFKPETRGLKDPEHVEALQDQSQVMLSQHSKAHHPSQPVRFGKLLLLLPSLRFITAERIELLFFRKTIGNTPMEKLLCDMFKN
Leukocyte tyrosine kinase receptor, sequence (P29376 whole entry): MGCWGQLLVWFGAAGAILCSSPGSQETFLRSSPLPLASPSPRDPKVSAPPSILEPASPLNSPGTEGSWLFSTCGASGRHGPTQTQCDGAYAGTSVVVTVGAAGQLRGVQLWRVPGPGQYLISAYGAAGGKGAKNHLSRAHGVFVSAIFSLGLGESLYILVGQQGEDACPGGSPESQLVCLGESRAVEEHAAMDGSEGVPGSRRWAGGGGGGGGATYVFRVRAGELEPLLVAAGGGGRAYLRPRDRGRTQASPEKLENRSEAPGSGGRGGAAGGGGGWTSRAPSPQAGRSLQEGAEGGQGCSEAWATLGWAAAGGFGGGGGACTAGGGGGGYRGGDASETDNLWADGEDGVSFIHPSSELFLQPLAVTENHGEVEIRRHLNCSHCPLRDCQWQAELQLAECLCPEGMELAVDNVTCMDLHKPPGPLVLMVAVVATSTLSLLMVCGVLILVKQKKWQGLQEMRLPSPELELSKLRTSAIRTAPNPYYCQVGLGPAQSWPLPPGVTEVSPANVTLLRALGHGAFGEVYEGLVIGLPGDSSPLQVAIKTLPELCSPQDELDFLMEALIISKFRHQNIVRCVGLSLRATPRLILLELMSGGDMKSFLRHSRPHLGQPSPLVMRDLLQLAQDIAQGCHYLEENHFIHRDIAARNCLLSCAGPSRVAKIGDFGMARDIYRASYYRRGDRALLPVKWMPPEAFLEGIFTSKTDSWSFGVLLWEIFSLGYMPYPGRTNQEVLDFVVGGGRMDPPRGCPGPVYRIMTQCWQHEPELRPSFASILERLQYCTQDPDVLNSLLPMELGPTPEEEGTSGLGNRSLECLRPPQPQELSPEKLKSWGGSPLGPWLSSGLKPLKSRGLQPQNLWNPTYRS
5'-AMP-activated protein kinase catalytic subunit alpha-1, sequence (Q13131 whole entry): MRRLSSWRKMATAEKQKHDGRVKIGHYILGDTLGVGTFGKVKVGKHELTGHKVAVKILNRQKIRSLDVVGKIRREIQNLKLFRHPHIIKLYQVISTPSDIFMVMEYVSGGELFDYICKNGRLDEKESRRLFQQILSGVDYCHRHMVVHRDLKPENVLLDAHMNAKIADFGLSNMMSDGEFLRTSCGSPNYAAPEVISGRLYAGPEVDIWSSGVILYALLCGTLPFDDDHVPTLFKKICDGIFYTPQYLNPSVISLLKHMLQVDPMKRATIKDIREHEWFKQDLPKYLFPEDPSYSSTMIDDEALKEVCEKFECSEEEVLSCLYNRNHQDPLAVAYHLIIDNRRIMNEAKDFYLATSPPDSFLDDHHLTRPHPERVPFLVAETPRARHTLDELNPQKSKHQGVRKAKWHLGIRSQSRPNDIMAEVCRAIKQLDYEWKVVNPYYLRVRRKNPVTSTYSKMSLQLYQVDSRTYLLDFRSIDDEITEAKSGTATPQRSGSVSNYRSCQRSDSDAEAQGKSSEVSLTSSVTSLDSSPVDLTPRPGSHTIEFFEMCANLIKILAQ
Serine/threonine-protein kinase D2, sequence (Q9BZL6 whole entry): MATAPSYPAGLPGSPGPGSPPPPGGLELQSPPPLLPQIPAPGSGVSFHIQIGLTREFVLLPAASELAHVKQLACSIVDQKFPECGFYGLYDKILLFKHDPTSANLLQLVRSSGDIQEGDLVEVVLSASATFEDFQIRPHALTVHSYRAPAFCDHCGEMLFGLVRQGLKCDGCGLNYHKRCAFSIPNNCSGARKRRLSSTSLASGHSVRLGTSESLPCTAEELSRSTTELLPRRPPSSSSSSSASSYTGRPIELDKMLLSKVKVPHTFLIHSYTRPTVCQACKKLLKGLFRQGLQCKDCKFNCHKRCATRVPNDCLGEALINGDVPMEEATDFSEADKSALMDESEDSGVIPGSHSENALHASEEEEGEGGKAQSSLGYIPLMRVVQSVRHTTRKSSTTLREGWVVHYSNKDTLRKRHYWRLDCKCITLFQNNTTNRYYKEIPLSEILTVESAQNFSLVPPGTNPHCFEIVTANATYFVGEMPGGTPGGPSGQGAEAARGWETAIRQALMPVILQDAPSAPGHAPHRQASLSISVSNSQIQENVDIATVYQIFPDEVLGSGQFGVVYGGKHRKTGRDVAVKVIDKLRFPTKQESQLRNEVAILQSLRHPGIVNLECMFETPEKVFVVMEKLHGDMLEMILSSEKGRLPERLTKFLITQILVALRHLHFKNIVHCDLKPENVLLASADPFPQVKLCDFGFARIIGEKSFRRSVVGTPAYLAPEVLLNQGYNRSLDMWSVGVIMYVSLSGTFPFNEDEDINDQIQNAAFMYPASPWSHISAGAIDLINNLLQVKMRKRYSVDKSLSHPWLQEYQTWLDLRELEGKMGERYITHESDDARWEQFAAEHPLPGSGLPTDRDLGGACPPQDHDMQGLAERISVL
Tyrosine-protein kinase JAK2, sequence (O60674 whole entry): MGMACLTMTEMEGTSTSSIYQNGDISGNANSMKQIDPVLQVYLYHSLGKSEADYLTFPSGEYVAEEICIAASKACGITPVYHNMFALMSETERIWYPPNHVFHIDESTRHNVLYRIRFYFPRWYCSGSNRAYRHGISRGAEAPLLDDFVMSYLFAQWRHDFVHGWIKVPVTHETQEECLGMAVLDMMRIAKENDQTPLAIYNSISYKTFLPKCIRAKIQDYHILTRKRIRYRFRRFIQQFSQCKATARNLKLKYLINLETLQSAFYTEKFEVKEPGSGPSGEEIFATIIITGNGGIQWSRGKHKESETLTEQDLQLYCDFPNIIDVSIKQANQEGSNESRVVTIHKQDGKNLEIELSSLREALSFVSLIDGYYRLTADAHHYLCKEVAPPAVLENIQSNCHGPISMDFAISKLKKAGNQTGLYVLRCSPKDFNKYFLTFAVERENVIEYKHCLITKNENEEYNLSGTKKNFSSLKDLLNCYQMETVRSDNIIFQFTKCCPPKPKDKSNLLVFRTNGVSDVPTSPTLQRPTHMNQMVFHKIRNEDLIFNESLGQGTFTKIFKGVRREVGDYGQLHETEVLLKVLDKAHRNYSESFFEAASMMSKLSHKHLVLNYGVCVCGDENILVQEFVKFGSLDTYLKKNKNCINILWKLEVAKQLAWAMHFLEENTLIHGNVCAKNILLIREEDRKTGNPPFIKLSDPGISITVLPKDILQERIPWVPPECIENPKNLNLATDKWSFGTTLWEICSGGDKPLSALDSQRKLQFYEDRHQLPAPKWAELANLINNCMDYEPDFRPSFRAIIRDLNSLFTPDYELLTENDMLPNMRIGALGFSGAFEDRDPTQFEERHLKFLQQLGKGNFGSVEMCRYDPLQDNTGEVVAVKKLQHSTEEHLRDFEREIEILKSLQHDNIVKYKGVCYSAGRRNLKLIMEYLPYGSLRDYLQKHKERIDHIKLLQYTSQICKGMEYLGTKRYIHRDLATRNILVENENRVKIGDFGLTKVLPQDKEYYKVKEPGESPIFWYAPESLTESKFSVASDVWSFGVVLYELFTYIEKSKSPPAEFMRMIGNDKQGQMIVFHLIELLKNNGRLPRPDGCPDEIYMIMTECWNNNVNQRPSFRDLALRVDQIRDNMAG

As usually defined, the Ki is a measure of affinity in units of concentration, obtained from inhibition or displacement. As for `CC(N)C1CCC(C(=O)Nc2ccnc3[nH]ccc23)CC1` (stereo not drawn), the Ki in [1] was > 1260 nM (inactive); in assay [2], > 3160 nM (inactive); in assay [3], 25.1 nM (active); in [4], 158 nM (active); in assay [5] it was 2000 nM (active); in assay [6] it was > 7940 nM (inactive). The Ki in assay [7] is > 7940 nM (inactive); in assay [8], > 1580 nM (inactive); in [9], > 2510 nM (inactive); in assay [10], 158 nM (active); in assay [11], 5010 nM (active); in assay [12] it was > 1580 nM (inactive). For the same compound, the Ki is > 2000 nM (inactive) in [13]; 3980 nM (active) in assay [14]; > 1580 nM (inactive) in assay [15]; > 7940 nM (inactive) in assay [16]; > 2510 nM (inactive) in assay [17]; 398 nM (active) in [18]. Besides, the inhibition constant Ki in assay [19] was 5010 nM (active); in assay [20] it was 1000 nM (active); in [21] it was > 5010 nM (inactive); in [22] it was > 1580 nM (inactive); on Activin receptor type-1 it was 1000 nM (active); in assay [23] it was > 2510 nM (inactive). Also, the Ki in [24] was > 2000 nM (inactive).

The IC50 is the midpoint of a concentration-inhibition curve. As for `COc1cc(Br)c(C(=O)c2nccc3cc(OC)c(OC)cc23)cc1OC`, the IC50 was 23900 nM (active) on Caspase-3, 12800 nM (active) on SUMO-activating enzyme and > 39800 nM (not active) in [25].

Source of the values: ChEMBL document CHEMBL1201862, “PubChem BioAssay data set” (2004).
